Experimental data reported in patent publication US20240327407A1, “NOVEL INHIBITORS OF AUTOTAXIN” (CADILA HEAL THCARE LIMITED, priority 2021, published 2024).

Biological target: ATX (Mus musculus (Mouse), UniProt Q9R1E6)
Assay: Mice serum ATX inhibitory activity (IC50 determination)
Type: biochemical
Procedure: ATX Inhibitory activity was determined in a biochemical or whole blood assay as described previously (Bretschneider, T. et al., SLAS Discov 2017, 22, 425). The biochemical reaction consisted of 50 mM Tris (pH 8.0), 3 mM KCl, 1 mM CaCl2, 1 mM Mg Cl2, […] NaCl and 0.1% bovine serum albumin, which was supplemented with 5 nM recombinant rat ATX, 5 μM 18:1 LPC and the test compound (0.1-10 μM). The reaction was stopped at 2 h by the addition of butanol, prior to the RapidFire-MS-based analysis.
The whole blood assay consisted of 45 μL μL heparinized mice/rat whole blood and the test compound (0.12-100 μM). The reaction was stopped after 1 h at 37° C. by addition of 100 μL 40 mM disodium hydrogen phosphate buffer containing 30 mM citric acid (pH 4) and 1 μM 17:0 LPA (internal standard). Afterwards the samples were treated a described above and analysed by LC-MS/MS. The data was analyzed using graph pad prism (v 7.03) to arrive at the half-maximal inhibitory concentrations (IC50) of the test compounds.

SMILES	IC50 [nM]
CC(C)[C@@H](NC(=O)c1cc(C(F)(F)F)ccc1F)C(=O)N1CCC2(CC1)C(=O)N(CCN)C(=O)C2c1ccccc1 (stereo partly drawn) [Compound 33, N-((2R)-1-(2-(2-aminoethyl)-1,3-dioxo-4-phenyl-2,8-diazaspiro[4.5]decan-8-yl)-3-methyl-1-oxobutan-2-yl)-2-fluoro-5-(trifluoromethyl)benzamide]	69.8
CC(C)[C@@H](NC(=O)c1cc(C(F)(F)F)ccc1F)C(=O)N1CCC2(CC1)C(=O)NCC2c1cccnc1 (stereo partly drawn) [Compound 57, 2-fluoro-N-((2R)-3-methyl-1-oxo-1-(1-oxo-4-(pyridin-3-yl)-2,8-diazaspiro[4.5]decan-8-yl)butan-2-yl)-5-(trifluoromethyl)benzamide]	56.2
CC(C)[C@@H](NC(=O)c1cc(C(F)(F)F)ccc1F)C(=O)N1CCC2(CC1)CN(C)CC2c1ccccc1 (stereo partly drawn) [Compound 62, 2-fluoro-N-((2R)-3-methyl-1-(2-methyl-4-phenyl-2,8-diazaspiro[4.5]decan-8-yl)-1-oxobutan-2-yl)-5-(trifluoromethyl)benzamide]	6.6
CC(C)[C@@H](NC(=O)c1cc(C(F)(F)F)ccc1F)C(=O)N1CCC2(CC1)CN(C)CC2c1cccnc1 (stereo partly drawn) [Compound 64, 2-fluoro-N-((2R)-3-methyl-1-(2-methyl-4-(pyridin-3-yl)-2,8-diazaspiro[4.5]decan-8-yl)-1-oxobutan-2-yl)-5-(trifluoromethyl)benzamide]	13.4
CC(C)[C@@H](NC(=O)c1cc(C(F)(F)F)ccc1F)C(=O)N1CCC2(CC1)CN(C)CC2c1ccc2[nH]ncc2c1 (stereo partly drawn) [Compound 65, N-((2R)-1-(4-(1H-indazol-5-yl)-2-methyl-2,8-diazaspiro[4.5]decan-8-yl)-3-methyl-1-oxobutan-2-yl)-2-fluoro-5-(trifluoromethyl)benzamide]	6.9
COc1ccc(F)c(C(=O)N[C@@H](C(=O)N2CCC3(CC2)C(=O)N(C)CC3c2ccccc2)C(C)C)c1 (stereo partly drawn) [Compound 105, 2-fluoro-5-methoxy-N-((2R)-3-methyl-1-(2-methyl-1-oxo-4-phenyl-2,8-diazaspiro[4.5]decan-8-yl)-1-oxobutan-2-yl)benzamide]	25.6
CC(C)[C@@H](NC(=O)c1cc(C(F)(F)F)ccc1F)C(=O)N1CCC2(CC1)C(=O)N(C)C=C2c1ccccc1 [Compound 106, (R)-2-fluoro-N-(3-methyl-1-(2-methyl-1-oxo-4-phenyl-2,8-diazaspiro[4.5]dec-3-en-8-yl)-1-oxobutan-2-yl)-5-(trifluoromethyl)benzamide]	55.6
CC(C)[C@@H](NC(=O)c1ccccc1F)C(=O)N1CCC2(CC1)C(=O)N(C)CC2c1ccccc1 (stereo partly drawn) [Compound 107, 2-fluoro-N-((2R)-3-methyl-1-(2-methyl-1-oxo-4-phenyl-2,8-diazaspiro[4.5]decan-8-yl)-1-oxobutan-2-yl)benzamide]	66.8
CC(C)[C@@H](NC(=O)c1cccc(C(F)(F)F)c1)C(=O)N1CCC2(CC1)C(=O)N(C)CC2c1ccccc1 (stereo partly drawn) [Compound 108, N-((2R)-3-methyl-1-(2-methyl-1-oxo-4-phenyl-2,8-diazaspiro[4.5]decan-8-yl)-1-oxobutan-2-yl)-3-(trifluoromethyl)benzamide]	16.4
CC(C)[C@@H](NC(=O)c1cc(OC(F)(F)F)ccc1F)C(=O)N1CCC2(CC1)C(=O)N(C)CC2c1ccccc1 (stereo partly drawn) [Compound 110, 2-fluoro-N-((2R)-3-methyl-1-(2-methyl-1-oxo-4-phenyl-2,8-diazaspiro[4.5]decan-8-yl)-1-oxobutan-2-yl)-5-(trifluoromethoxy)benzamide]	3.8
CC(C)[C@@H](NC(=O)c1cc(C(F)(F)F)ccc1F)C(=O)N1CCC2(CC1)OC(=O)NC2c1ccccc1 (stereo partly drawn) [Compound 115, 2-fluoro-N-((2R)-3-methyl-1-oxo-1-(2-oxo-4-phenyl-1-oxa-3,8-diazaspiro[4.5]decan-8-yl)butan-2-yl)-5-(trifluoromethyl)benzamide]	74.4

The next lines start with the values.

IC50 [nM]	SMILES
91	CC(C)[C@@H](NC(=O)c1cc(C(F)(F)F)ccc1F)C(=O)N1CCC2(CC1)C(=O)N(C)C(=O)C2c1ccccc1 (stereo partly drawn) [Compound 1, 2-fluoro-N-((2R)-3-methyl-1-(2-methyl-1,3-dioxo-4-phenyl-2,8-diazaspiro[4.5]decan-8-yl)-1-oxobutan-2-yl)-5-(trifluoromethyl)benzamide]
4	CC(C)[C@@H](NC(=O)c1cc(C(F)(F)F)ccc1F)C(=O)N1CCC2(CC1)C(=O)N(C)CC2c1ccccc1 (stereo partly drawn) [Compound 44, 2-fluoro-N-((2R)-3-methyl-1-(2-methyl-1-oxo-4-phenyl-2,8-diazaspiro[4.5]decan-8-yl)-1-oxobutan-2-yl)-5-(trifluoromethyl)benzamide]
19.2	CC(C)[C@@H](NC(=O)c1cc(C(F)(F)F)ccc1F)C(=O)N1CCC2(CC1)C(=O)NCC2c1ccccc1 (stereo partly drawn) [Compound 45, 2-fluoro-N-((2R)-3-methyl-1-oxo-1-(1-oxo-4-phenyl-2,8-diazaspiro[4.5]decan-8-yl)butan-2-yl)-5-(trifluoromethyl)benzamide]
13.3	CC(C)[C@@H](NC(=O)c1cc(C(F)(F)F)ccc1F)C(=O)N1CCC2(CC1)C(=O)N(C)CC2c1cccnc1 (stereo partly drawn) [Compound 56, 2-fluoro-N-((2R)-3-methyl-1-(2-methyl-1-oxo-4-(pyridin-3-yl)-2,8-diazaspiro[4.5]decan-8-yl)-1-oxobutan-2-yl)-5-(trifluoromethyl)benzamide]
58.9	CC(C)[C@@H](NC(=O)c1cc(C(F)(F)F)ccc1F)C(=O)N1CCC2(CC1)C(=O)N(C)CC2c1ccc2[nH]ncc2c1 (stereo partly drawn) [Compound 58, N-((2R)-1-(4-(1H-indazol-5-yl)-2-methyl-1-oxo-2,8-diazaspiro[4.5]decan-8-yl)-3-methyl-1-oxobutan-2-yl)-2-fluoro-5-(trifluoromethyl)benzamide]
22.6	CC(C)[C@@H](NC(=O)c1cc(C(F)(F)F)ccc1F)C(=O)N1CCC2(CC1)C(=O)NCC2c1ccc(F)cc1 (stereo partly drawn) [Compound 102, 2-fluoro-N-((2R)-1-(4-(4-fluorophenyl)-1-oxo-2,8-diazaspiro[4.5]decan-8-yl)-3-methyl-1-oxobutan-2-yl)-5-(trifluoromethyl)benzamide]
6.9	CC(C)[C@@H](NC(=O)c1cc(C(F)(F)F)ccc1F)C(=O)N1CCC2(CC1)C(=O)N(C)CC2c1ccc(F)cc1 (stereo partly drawn) [Compound 103, 2-fluoro-N-((2R)-1-(4-(4-fluorophenyl)-2-methyl-1-oxo-2,8-diazaspiro[4.5]decan-8-yl)-3-methyl-1-oxobutan-2-yl)-5-(trifluoromethyl)benzamide]
11.7	CCN1CC(c2ccc(F)cc2)C2(CCN(C(=O)[C@H](NC(=O)c3cc(C(F)(F)F)ccc3F)C(C)C)CC2)C1=O (stereo partly drawn) [Compound 104, N-((2R)-1-(2-ethyl-4-(4-fluorophenyl)-1-oxo-2,8-diazaspiro[4.5]decan-8-yl)-3-methyl-1-oxobutan-2-yl)-2-fluoro-5-(trifluoromethyl)benzamide]
34.2	CC(C)[C@@H](NC(=O)c1cc(C(F)(F)F)ccc1F)C(=O)N1CCC2(CC1)C(=O)N(C(C)C)CC2c1ccc(F)cc1 (stereo partly drawn) [Compound 111, 2-fluoro-N-((2R)-1-(4-(4-fluorophenyl)-2-isopropyl-1-oxo-2,8-diazaspiro[4.5]decan-8-yl)-3-methyl-1-oxobutan-2-yl)-5-(trifluoromethyl)benzamide]
73.4	CC(C)[C@@H](NC(=O)c1cc(C(F)(F)F)ccc1F)C(=O)N1CCC2(CC1)C(=O)N(CC1CC1)CC2c1ccc(F)cc1 (stereo partly drawn) [Compound 112, N-((2R)-1-(2-(cyclopropylmethyl)-4-(4-fluorophenyl)-1-oxo-2,8-diazaspiro[4.5]decan-8-yl)-3-methyl-1-oxobutan-2-yl)-2-fluoro-5-(trifluoromethyl)benzamide]
102	CC(C)[C@@H](NC(=O)c1cc(C(F)(F)F)ccc1F)C(=O)N1CCC2(CC1)C(=O)N(CC1CC1)CC2c1cccnc1 (stereo partly drawn) [Compound 113, N-((2R)-1-(2-(cyclopropylmethyl)-1-oxo-4-(pyridin-3-yl)-2,8-diazaspiro[4.5]decan-8-yl)-3-methyl-1-oxobutan-2-yl)-2-fluoro-5-(trifluoromethyl)benzamide]
1.7	COc1ccc(C2CN(C)C(=O)C23CCN(C(=O)[C@H](NC(=O)c2cc(C(F)(F)F)ccc2F)C(C)C)CC3)cc1 (stereo partly drawn) [Compound 114, 2-fluoro-N-((2R)-1-(4-(4-methoxyphenyl)-2-methyl-1-oxo-2,8-diazaspiro[4.5]decan-8-yl)-3-methyl-1-oxobutan-2-yl)-5-(trifluoromethyl)benzamide]
7.1	CC(C)[C@@H](NC(=O)c1cc(C(F)(F)F)ccc1F)C(=O)N1CCC2(CC1)CN(C)CC2c1ccc(F)cc1 (stereo partly drawn) [Compound 119, 2-fluoro-N-((2R)-1-(4-(4-fluorophenyl)-2-methyl-2,8-diazaspiro[4.5]decan-8-yl)-3-methyl-1-oxobutan-2-yl)-5-(trifluoromethyl)benzamide]
44.4	CC(C)[C@@H](NC(=O)c1cc(C(F)(F)F)ccc1F)C(=O)N1CCC2(CC1)CN(C(C)C)CC2c1ccc(F)cc1 (stereo partly drawn) [Compound 120, 2-fluoro-N-((2R)-1-(4-(4-fluorophenyl)-2-isopropyl-2,8-diazaspiro[4.5]decan-8-yl)-3-methyl-1-oxobutan-2-yl)-5-(trifluoromethyl)benzamide]
84.4	CC(C)[C@@H](NC(=O)c1cc(C(F)(F)F)ccc1F)C(=O)N1CCC2(CC1)CN(CC1CC1)CC2c1ccc(F)cc1 (stereo partly drawn) [Compound 121, N-((2R)-1-(2-(cyclopropylmethyl)-4-(4-fluorophenyl)-2,8-diazaspiro[4.5]decan-8-yl)-3-methyl-1-oxobutan-2-yl)-2-fluoro-5-(trifluoromethyl)benzamide]
